Source: PubChem BioAssay (NCI)
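GI50: concentration for 50% inhibition of growth. TGI: total growth inhibition.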

Columns and labels:
Assay in all cases: NCI tumour cell line growth inhibition, 384-well format
786-0 renal = system: 786-0 renal
NCI-H23 lung = system: NCI-H23 lung
SNB-19 CNS = system: SNB-19 CNS
NCI-H322M lung = system: NCI-H322M lung
OVCAR-4 ovarian = system: OVCAR-4 ovarian
PC-3 prostate = system: PC-3 prostate
HL-60(TB) leukemia = system: HL-60(TB) leukemia
MALME-3M melanoma = system: MALME-3M melanoma
OVCAR-5 ovarian = system: OVCAR-5 ovarian
HOP-92 NSCLC = system: HOP-92 NSCLC
MDA-MB-435 melanoma = system: MDA-MB-435 melanoma
SF-295 CNS = system: SF-295 CNS
NCI-H460 NSCLC = system: NCI-H460 NSCLC
EKVX NSCLC = system: EKVX NSCLC
MOLT-4 leukemia = system: MOLT-4 leukemia
A498 renal = system: A498 renal
HCT-15 colon = system: HCT-15 colon
CAKI-1 renal = system: CAKI-1 renal
MDA-MB-231 breast = system: MDA-MB-231 breast
T-47D breast = system: T-47D breast
HS 578T breast = system: HS 578T breast
NCI-H522 lung = system: NCI-H522 lung
CCRF-CEM leukemia = system: CCRF-CEM leukemia
COLO 205 colon = system: COLO 205 colon
SN12C renal = system: SN12C renal
K-562 leukemia = system: K-562 leukemia
SK-MEL-28 melanoma = system: SK-MEL-28 melanoma
UACC-62 melanoma = system: UACC-62 melanoma
HT29 colon = system: HT29 colon
RXF 393 renal = system: RXF 393 renal

SMILES: CC1(C)CC[C@H](Nc2ncc(C(F)(F)F)c(-c3c[nH]c4c(P(C)(C)=O)c(C#N)ccc34)n2)CN1
- TGI (786-0 renal): 6180 nM
- GI50 (NCI-H23 lung): < 10 nM
- TGI (NCI-H23 lung): 1470 nM
- GI50 (SNB-19 CNS): 1000 nM
- TGI (SNB-19 CNS): 12800 nM
- GI50 (NCI-H322M lung): 644 nM
- TGI (NCI-H322M lung): 3140 nM
- GI50 (OVCAR-4 ovarian): 21.3 nM
- TGI (OVCAR-4 ovarian): 1420 nM
- GI50 (PC-3 prostate): < 10 nM
- TGI (PC-3 prostate): 10800 nM
- GI50 (HL-60(TB) leukemia): < 10 nM
- TGI (HL-60(TB) leukemia): 126 nM
- GI50 (MALME-3M melanoma): 27.6 nM
- TGI (MALME-3M melanoma): 2420 nM
- GI50 (OVCAR-5 ovarian): 182 nM
- TGI (OVCAR-5 ovarian): 9820 nM
- GI50 (HOP-92 NSCLC): 2310 nM
- TGI (HOP-92 NSCLC): 11600 nM
- GI50 (MDA-MB-435 melanoma): 114 nM
- TGI (MDA-MB-435 melanoma): 2720 nM
- GI50 (SF-295 CNS): 67.5 nM
- TGI (SF-295 CNS): 4570 nM
- GI50 (NCI-H460 NSCLC): < 10 nM
- TGI (NCI-H460 NSCLC): < 10 nM
- GI50 (EKVX NSCLC): 361 nM
- TGI (EKVX NSCLC): 3640 nM
- GI50 (MOLT-4 leukemia): < 10 nM
- TGI (MOLT-4 leukemia): < 10 nM
- GI50 (A498 renal): 19.7 nM
- TGI (A498 renal): 6540 nM
- GI50 (HCT-15 colon): 65.9 nM
- TGI (HCT-15 colon): 4370 nM
- GI50 (CAKI-1 renal): 38.8 nM
- TGI (CAKI-1 renal): 12300 nM
- GI50 (MDA-MB-231 breast): 1190 nM
- TGI (MDA-MB-231 breast): 10300 nM
- GI50 (T-47D breast): 994 nM
- TGI (T-47D breast): 10200 nM
- GI50 (HS 578T breast): 301 nM
- TGI (HS 578T breast): 1620 nM
- GI50 (NCI-H522 lung): < 10 nM
- TGI (NCI-H522 lung): 2420 nM
- GI50 (CCRF-CEM leukemia): 54.6 nM
- TGI (CCRF-CEM leukemia): 1360 nM
- GI50 (COLO 205 colon): < 10 nM
- TGI (COLO 205 colon): 1450 nM
- GI50 (SN12C renal): < 10 nM
- TGI (SN12C renal): 2870 nM
- GI50 (K-562 leukemia): < 10 nM
- TGI (K-562 leukemia): 11200 nM
- GI50 (SK-MEL-28 melanoma): < 10 nM
- TGI (SK-MEL-28 melanoma): 1520 nM
- GI50 (UACC-62 melanoma): < 10 nM
- TGI (UACC-62 melanoma): 30.9 nM
- GI50 (HT29 colon): 2060 nM
- TGI (HT29 colon): 28300 nM
- GI50 (RXF 393 renal): 1510 nM
- TGI (RXF 393 renal): 2990 nM
